Results on seven molecules are retold here after patent US9248111B2, “Therapeutic approaches for treating parkinson's disease” (PHARNEXT, priority 2011, dated 2016).

Common to all, as to format: cell-based, rat
In one experiment the test system is neuronal cortical cells. The experiment is described as follows: Glutamate toxicity assay, neurite network (neurofilament immunostaining) of primary cortical neurons. Conditions: alone or combined. The protocol: Glutamate toxicity is involved in the pathogenesis of Parkinson's disease. In this set of experiment, candidate compounds have been tested for their ability to prevent or reduce the toxic effects of glutamate toxicity on neuronal cells. The drugs are first tested individually, followed by assays of their combinatorial action.
The efficacy of drug combinations of the invention is assessed on primary cortical neuron cells.
Rat cortical neurons were cultured as described by Singer et al.. Briefly pregnant female rats of 15 days gestation were killed by cervical dislocation (Rats Wistar) and the foetuses were removed from the uterus. The cortex was removed and placed in ice-cold medium of Leibovitz (L15) containing 2% of Penicillin 10.000 U/ml and Streptomycin 10 mg/ml and 1% of bovine serum albumin (BSA). Cortices were dissociated by trypsin for 20 min at 37° C. (0.05%). The reaction was stopped by the addition of Dulbecco's modified Eagle's medium (DMEM) containing DNaseI grade II and 10% of foetal calf serum (FCS). Cells were then mechanically dissociated by 3 serial passages through a 10 ml pipette and centrifuged at 515 g for 10 min at +4° C. The supernatant was discarded and the pellet of cells was re-suspended in a defined culture medium consisting of Neurobasal supplemented with B27 (2%), L-glutamine (0.2 mM), 2% of PS solution and 10 ng/ml of BDNF. Viable cells were counted in a Neubauer cytometer using the trypan blue exclusion test. The cells were seeded at a density of 30 000 cells/well in 96 well-plates (wells were pre-coated with poly-L-lysine (10 μg/ml)) and were cultured at +37° C. in a humidified air (95%)/CO2 (5%) atmosphere.
After 12 days of neuron culture, drugs of the candidate combinations are solved in culture medium (+0.1% DMSO). Candidate combinations are then pre-incubated with neurons for 1 hour before the glutamate injury. One hour after incubation with, glutamate is added for 20 min, to a final concentration of 40 μM, in presence of candidate combinations, in order to avoid further drug dilutions. At the end of the incubation, medium is changed with medium with candidate combination but without glutamate. The culture is fixed 24 hours after glutamate injury. MK801 (dizocilpinehydrogen maleate, 77086-22-7-20 μM) is used as a positive control.
After permeabilization with saponin (Sigma), cells are blocked for 2 h with PBS containing 10% goat serum, then the cells are incubated with mouse monoclonal primary antibody against Neurofilament antibody (NF, Sigma).
Nuclei of cells are labeled by a fluorescent marker (Hoechst solution, SIGMA), and neurite network quantified. Six wells per condition are used to assess neuronal survival in 3 different cultures.

The next experiment deals with cortical neuronal cells. The experiment is described as follows: Oxygen and glucose deprivation assay (in vitro model of ischemia), neurite network by MAP2. Conditions: alone or combined. The protocol: B—Protective Effect Against Ischemia/Hypoxia Induced Neuronal Cell Death Rat Neuronal Cortical Cells Preparation
Cells are prepared as previously.
The neuroprotective effect of compounds is assessed by quantification of the neurite network using MAP2 antibody. Riluzole, a neuroprotective drug, (Riluteck®, 5 μM) is used as positive control.
After 10 days of neuron culture, candidate drugs are solved in culture medium (+0.1% DMSO) and then pre-incubated with neurons for 1 hour before the oxygen and glucose deprivation. One hour after candidate drug incubation, the medium is removed and fresh medium without glucose is added. This medium is composed by DMEM without glucose (Invitrogen) supplemented with 2% B27, 0.2 mM L-glutamine, 1% PS solution, 10 ng/ml of BDNF. The cells are transferred into an anaerobic incubator with 95% N2 and 5% CO2 at 37° C.
After 2 hours, 25 mM of D-Glucose will be added in culture medium and cells are transferred in classic incubator with 95% air/5% CO2 at 37° C. After 24 hours of oxygen glucose reperfusion, cells are fixed by a cold solution of alcohol/acetic acid during 5 minutes.
After permeabilization with saponin (Sigma), cells are blocked for 2 hours with PBS containing 10% goat serum, then the cells are incubated with mouse monoclonal primary antibody against MAP2 (MAP2, Sigma).
Nuclei of cells are labelled by a fluorescent marker (Hoechst solution, SIGMA). Six wells per condition are used to assess neuronal survival in 3 different cultures.
For each condition 2×10 pictures per well are taken and analyzed using InCell Analyzer TM 1000 (GE Healthcare) with 20× magnification.

Experiment [1] relates to dopaminergic neuronal cells. The experiment is described as follows: 6-OHDA injury on mesencephalic dopaminergic neurons, number of TH positive neurons. The protocol: 6-hydroxydopamine (6-OHDA) is a neurotoxic drug which selectively initiates neuronal degeneration of dopaminergic neurons by generating reactive oxygen species and mitochondrial respiratory dysfunction which are thought to mirror events occurring in Parkinsonian brain. 6-OHDA toxicity is commonly used in vitro and in vivo to study Parkinsonism.
Rat dopaminergic neurons were cultured as described by Schinelli et al.. Pregnant female rats of 15 days gestation were killed by cervical dislocation (Rats Wistar; Janvier) and the foetuses removed from the uterus. The embryonic midbrains were removed and placed in ice-cold medium of Leibovitz (L15; PanBiotech) containing 2% of Penicillin-Streptomycin (PS; PanBiotech) and 1% of bovine serum albumin (BSA; PanBiotech). Only the ventral portions of the mesencephalic flexure were used for the cell preparations as this is the region of the developing brain rich in dopaminergic neurons. The midbrains were dissociated by trypsinisation for 20 min at 37° C. (Trypsin EDTA 1×; PanBiotech). The reaction is stopped by the addition of Dulbecco's modified Eagle's medium (DMEM; PanBiotech) containing DNAase I grade II (0.1 mg/ml; PanBiotech) and 10% of foetal calf serum (FCS; Invitrogen). Cells were then mechanically dissociated by 3 passages through a 10 ml pipette and centrifuged at 180×g for 10 min at +4° C. on a layer of BSA (3.5%) in L15 medium. The supernatant was discarded and the cells of pellet were re-suspended in a defined culture medium consisting of Neurobasal (Invitrogen) supplemented with B27 (2%; Invitrogen), L-glutamine (2 mM; PanBiotech) and 2% of PS solution and 10 ng/ml of Brain-derived neurotrophic factor (BDNF, PanBiotech) and 1 ng/ml of Glial-Derived Neurotrophic Factor (GDNF, PanBiotech). Viable cells were counted in a Neubauer cytometer using the trypan blue exclusion test. The cells were seeded at a density of 40 000 cells/well in 96 well-plates (pre-coated with poly-L-lysine (Greiner)) and are cultured at 37° C. in a humidified air (95%)/CO2 (5%) atmosphere. Half of the medium was changed every 2 days with fresh medium. Five to six percent of the neuronal cell population were dopaminergic neurons.
On day 6 of culture, the medium was removed and fresh medium was added, without or with 6-OHDA at the following concentrations: 20 μM during 48 hours diluted in control medium. Test compounds were pre-incubated for 1 h before the 6-OHDA application during 48 hours.
After 48 hours of intoxication with 6-OHDA, cells were fixed by a solution of 4% paraformaldehyde (Sigma) in PBS, pH=7.3 for 20 min at room temperature. The cells were washed again twice in PBS, and then permeabilized and non-specific sites were blocked with a solution of PBS containing 0.1% of saponin (Sigma) and 1% FCS for 15 min at room temperature. Then, cells were incubated with Monoclonal Anti-Tyrosine Hydroxylase antibody produced in mouse (TH, Sigma) at dilution of 1/1000 in PBS containing 1% FCS, 0.1% saponin, for 2 hours at room temperature.
For each condition, 2×10 pictures (representing ˜80% of total well area) per well were taken using InCell Analyzer™ 1000 (GE Healthcare) with 10× magnification. All images were taken in the same conditions. […]
Data are expressed in percentage of control conditions (no intoxication, no 6-OHDA=100%) in order to express the 6-OHDA injury. All values are expressed as mean+/−SEM (s.e. mean) of the 3 cultures (n=6 wells per condition per culture). […]

Where [2] appears, read: FIG. 1: cinacalcet 64 pM, mexiletine 25.6 pM.
Setting [3] is: FIG. 6: cinacalcet 64 pM, mexiletine 25.6 pM.
[4] abbreviates: FIG. 3: baclofen 400 nM, acamprosate 1.6 nM.
[5] abbreviates: FIG. 4: baclofen 80 nM, acamprosate 0.32 nM.
[6] abbreviates: FIG. 12A: baclofen 32 nM alone, acamprosate 10 pM alone.
Setting [7] is: FIG. 12B: baclofen 32 nM alone, acamprosate 4 pM alone.
Where [8] appears, read: FIG. 2: sulfisoxazole 6.8 nM, torasemide 400 nM.
[9] abbreviates: FIG. 5: sulfisoxazole 1.36 nM, torasemide 80 nM.

With `Cc1cccc(C)c1OCC(C)N` (centres unmarked) [mexiletine], in the experiment with neuronal cortical cells (setting [2]), the “prevention of glutamate intoxication” value is given as “no significant effect”. In addition, the “protection against ischemic injury” value in the experiment with cortical neuronal cells (setting [3]) is on record as “No significant protection”.

In the case of `NCC(CC(=O)O)c1ccc(Cl)cc1` (centres unmarked) [baclofen], the “prevention of glutamate intoxication” value in the experiment with neuronal cortical cells (setting [4]) is “no significant effect”. The “protection against ischemic injury” value in the experiment with cortical neuronal cells (setting [5]) is reported as “no significant protection”. For the same molecule, the “protection from 6-OHDA injury, single drugs” value in experiment [1] (setting [6]) and in experiment [1] (setting [7]) was “low effect” throughout.

In the case of `Cc1noc(NS(=O)(=O)c2ccc(N)cc2)c1C` [sulfisoxazole], in the experiment on neuronal cortical cells (setting [8]), the “prevention of glutamate intoxication” value is listed as “no significant effect”. The “protection against ischemic injury” value with cortical neuronal cells (setting [9]) is on record as “no significant protection”.

Take `CC(=O)NCCCS(=O)(=O)O` [acamprosate]: the “prevention of glutamate intoxication” value with neuronal cortical cells (setting [4]) is “no significant effect”. The “protection against ischemic injury” value with cortical neuronal cells (setting [5]) is “no significant protection”. Further, the “protection from 6-OHDA injury, single drugs” value in experiment [1] (setting [6]) and in experiment [1] (setting [7]) was “low effect” each time.

Take `Cc1cccc(Nc2ccncc2S(=O)(=O)NC(=O)NC(C)C)c1` [torasemide]: the “prevention of glutamate intoxication” value in the experiment with neuronal cortical cells (setting [8]) is reported as “no significant effect”. In addition, the “protection against ischemic injury” value in the experiment on cortical neuronal cells (setting [9]) was “no significant protection”.

For the molecule `C[C@@H](NCCCc1cccc(C(F)(F)F)c1)c1cccc2ccccc12` [cinacalcet], the “prevention of glutamate intoxication” value in the experiment on neuronal cortical cells (setting [2]) was “no significant effect”. Further, the “protection against ischemic injury” value in the experiment on cortical neuronal cells (setting [3]) was “No significant protection”.

B1: BDNF: Brain-derived neurotrophic factor, used as a positive control (protein, UniProt P23560 129-247, looked up)
Neurotrophic factor BDNF: HSDPARRGELSVCDSISEWVTAADKKTAVDMSGGTVTVLEKVPVSKGQLKQYFYETKCNPMGYTKEGCRGIDKRHWNSQCRTTQSYVRALTMDSKKRIGWRFIRIDTSCVCTLTIKRGR
modifications: Neurotrophic factor BDNF
notes: Brain-derived neurotrophic factor, used as a positive control
Turning to B1, the “protection of dopaminergic neurons from 6-OHDA injury” value in experiment [1] (1.85 nM, one hour pre-treatment, positive control) is given as “significantly protected”.
